Experiments:
AuroraB (h) = AuroraB (h) (Homo sapiens, UniProt Q96GD4); test: Aurora-B human kinase inhibition, SPA; type: biochemical; conditions: read-out: AuroraB pIC50 (converted)
Procedure, shortened: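 SPA with biotinylated peptide (3 μM) in 60 mM Hepes pH 7.5, Mg/Mn 3 mM each, 0.5 μM ATP plus [γ-33P]ATP, AuroraB at 0.5 μg/ml. The reaction runs 60 min at room temperature and is stopped with EDTA and streptavidin PVT beads. 33P-substrate is read by scintillation imaging.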

CDK1/CyclinB (h) = CDK1/CyclinB (h) (Homo sapiens, UniProt P06493); test: CDK1/CyclinB human kinase inhibition, Invitrogen's FRET assay (Z'lyte); type: biochemical; conditions: read-out: CDK1 pIC50 (converted)
Chain of CDK1/CyclinB (h) (P06493 whole entry): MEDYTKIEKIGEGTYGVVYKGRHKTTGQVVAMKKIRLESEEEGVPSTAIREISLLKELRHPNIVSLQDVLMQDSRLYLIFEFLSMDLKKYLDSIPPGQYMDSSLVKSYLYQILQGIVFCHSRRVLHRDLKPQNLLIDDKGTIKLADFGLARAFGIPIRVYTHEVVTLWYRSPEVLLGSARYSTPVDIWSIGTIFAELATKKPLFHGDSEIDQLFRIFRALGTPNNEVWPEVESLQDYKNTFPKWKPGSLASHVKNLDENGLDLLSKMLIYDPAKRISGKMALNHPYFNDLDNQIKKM
Chain of CDK1/CyclinB (h) (P14635 whole entry partner): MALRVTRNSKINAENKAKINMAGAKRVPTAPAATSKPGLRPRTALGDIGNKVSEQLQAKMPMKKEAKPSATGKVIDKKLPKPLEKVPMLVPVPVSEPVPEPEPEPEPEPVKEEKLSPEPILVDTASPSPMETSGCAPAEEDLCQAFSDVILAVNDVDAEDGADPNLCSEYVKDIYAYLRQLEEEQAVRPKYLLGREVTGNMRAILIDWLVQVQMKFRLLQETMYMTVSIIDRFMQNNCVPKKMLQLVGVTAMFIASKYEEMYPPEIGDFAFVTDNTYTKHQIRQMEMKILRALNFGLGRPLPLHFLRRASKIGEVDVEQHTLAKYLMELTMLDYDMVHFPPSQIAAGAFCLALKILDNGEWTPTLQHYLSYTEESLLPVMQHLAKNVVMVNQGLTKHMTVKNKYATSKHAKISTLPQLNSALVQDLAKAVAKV
Procedure, shortened: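 Z'lyte FRET assay: human CDK1/CyclinB (0.2 μg/ml) with 2 μM Ser/Thr peptide 12 and 10 μM ATP in 50 mM Hepes pH 7.5, MgCl2, EGTA, Brij-35, 60 min at room temperature. Protease development 60 min, then emission ratio 460/538 nm read with excitation at 390 nm.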

CDK4/CyclinD1 (h) = CDK4/CyclinD1 (h) (Homo sapiens, UniProt P11802); test: CDK4/CyclinD1 human kinase inhibition, SPA with GST-pRb substrate; type: biochemical; conditions: read-out: CDK4 pIC50 (converted)
Chain of CDK4/CyclinD1 (h) (P11802 whole entry): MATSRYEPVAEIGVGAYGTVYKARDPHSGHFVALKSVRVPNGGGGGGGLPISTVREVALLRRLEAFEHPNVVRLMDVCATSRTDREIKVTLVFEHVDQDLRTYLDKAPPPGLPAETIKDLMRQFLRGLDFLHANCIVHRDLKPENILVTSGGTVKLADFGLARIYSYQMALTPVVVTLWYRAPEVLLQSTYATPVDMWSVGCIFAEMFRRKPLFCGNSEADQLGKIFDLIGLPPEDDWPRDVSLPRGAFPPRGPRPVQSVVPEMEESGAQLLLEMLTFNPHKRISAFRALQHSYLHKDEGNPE
Chain of CDK4/CyclinD1 (h) (P24385 whole entry partner): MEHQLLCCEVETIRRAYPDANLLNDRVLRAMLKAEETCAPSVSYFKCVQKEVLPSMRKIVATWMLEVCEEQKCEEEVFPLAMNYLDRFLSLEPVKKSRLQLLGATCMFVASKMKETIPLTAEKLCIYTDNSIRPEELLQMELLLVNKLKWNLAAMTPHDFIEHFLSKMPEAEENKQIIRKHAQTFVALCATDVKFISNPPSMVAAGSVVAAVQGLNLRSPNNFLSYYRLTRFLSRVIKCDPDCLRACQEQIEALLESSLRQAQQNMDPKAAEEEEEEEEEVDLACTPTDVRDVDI
Procedure, shortened: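 Human CDK4/CyclinD1 (2.5 μg/ml) was incubated with 40 μg/ml GST-pRb and 2 nM [γ-33P]ATP in 50 mM Hepes pH 7.5, 8 mM NaF, 20 mM MgCl2, 1 mM DTT for 60 min at room temperature. EDTA stop with glutathione SPA beads; phosphorylation read by scintillation counting.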

PLK1 T210D (h) = PLK1 T210D (h) (Homo sapiens, UniProt P53350, T210D); test: PLK1 human kinase inhibition, SPA; type: biochemical; conditions: read-out: PLK1 pIC50 (converted)
Chain of PLK1 T210D (h) (P53350 whole entry T210D): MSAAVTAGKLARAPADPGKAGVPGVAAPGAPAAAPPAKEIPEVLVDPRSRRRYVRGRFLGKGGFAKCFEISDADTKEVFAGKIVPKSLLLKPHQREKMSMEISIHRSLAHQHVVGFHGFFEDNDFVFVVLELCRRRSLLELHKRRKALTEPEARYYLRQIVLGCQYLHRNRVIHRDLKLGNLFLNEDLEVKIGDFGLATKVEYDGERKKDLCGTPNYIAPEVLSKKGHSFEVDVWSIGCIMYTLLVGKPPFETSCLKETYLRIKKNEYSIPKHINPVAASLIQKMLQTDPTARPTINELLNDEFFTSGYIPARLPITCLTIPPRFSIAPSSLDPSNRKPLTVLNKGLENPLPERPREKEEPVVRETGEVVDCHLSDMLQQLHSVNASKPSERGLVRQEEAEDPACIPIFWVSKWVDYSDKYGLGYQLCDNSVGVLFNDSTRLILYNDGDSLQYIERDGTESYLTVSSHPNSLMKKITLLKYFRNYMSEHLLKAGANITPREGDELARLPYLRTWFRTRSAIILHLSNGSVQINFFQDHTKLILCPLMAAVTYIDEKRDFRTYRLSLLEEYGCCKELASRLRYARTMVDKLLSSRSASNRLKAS
Procedure, shortened: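 Radiometric SPA with PLK1 T210D (0.125 ng/ml) in 50 mM Hepes pH 8.0, 2 mM MnCl2, 1 mM DTT, 2 μM biotinylated peptide, 0.1 μM ATP plus 2 nM [γ-33P]ATP. 40 min at room temperature, EDTA stop. Phosphorylated substrate captured on streptavidin PVT beads, scintillation imaged.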

PLK2 (h) = PLK2 (h) (Homo sapiens, UniProt Q9NYY3); test: PLK2 human kinase inhibition, SPA; type: biochemical; conditions: read-out: PLK2 pIC50 (converted)
Chain of PLK2 (h) (Q9NYY3 whole entry): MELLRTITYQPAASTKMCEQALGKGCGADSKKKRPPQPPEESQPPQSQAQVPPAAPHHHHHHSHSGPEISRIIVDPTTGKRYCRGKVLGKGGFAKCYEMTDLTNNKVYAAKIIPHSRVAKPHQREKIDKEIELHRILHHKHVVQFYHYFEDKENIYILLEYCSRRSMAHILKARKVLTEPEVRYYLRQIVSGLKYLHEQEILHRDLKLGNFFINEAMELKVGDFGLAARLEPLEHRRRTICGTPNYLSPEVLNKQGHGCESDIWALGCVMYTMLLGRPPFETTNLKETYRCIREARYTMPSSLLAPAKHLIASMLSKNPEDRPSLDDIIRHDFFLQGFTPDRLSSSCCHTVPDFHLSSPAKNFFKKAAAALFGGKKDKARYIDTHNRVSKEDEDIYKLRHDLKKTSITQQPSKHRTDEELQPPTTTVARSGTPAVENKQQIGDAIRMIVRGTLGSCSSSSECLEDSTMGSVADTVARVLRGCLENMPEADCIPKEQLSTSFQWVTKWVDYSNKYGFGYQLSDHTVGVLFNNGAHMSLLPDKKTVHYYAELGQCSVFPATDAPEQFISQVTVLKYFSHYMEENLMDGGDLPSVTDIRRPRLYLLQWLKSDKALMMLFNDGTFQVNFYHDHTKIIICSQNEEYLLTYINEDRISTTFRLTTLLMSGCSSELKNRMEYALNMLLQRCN
Procedure, shortened: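 SPA read on Leadseeker: PLK2 (30 μg/ml) with 2 μM biotinylated peptide, 0.1 μM ATP plus 2 nM [γ-33P]ATP in 50 mM Hepes pH 8.0, 2 mM MnCl2, 1 mM DTT. Reaction ran 20 min at room temperature, then EDTA stop and streptavidin PVT beads.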

HCT-116 = test: Cellular proliferation assay (Alamar blue), HCT-116; type: cell-based; conditions: Homo sapiens, 10% FCS, 72 hours with compound, Alamar blue 4 h
Procedure, shortened: (§1)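 Cells were seeded in medium with 10% FCS at 37° C, 5% CO2, left 24 h without compound, then exposed to compounds for 72 h. Viability was read with Alamar blue (resazurin 9 μg/ml, K-ferrocyanide and K-ferricyanide 90 μM each), 6 h for U87-MG, 4 h for HCT-116, 24 h for A2780 and MDA-MB-231.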

H1299 = test: Cellular proliferation assay (Alamar blue), H1299; type: cell-based; conditions: Homo sapiens, NCI-H1299; 10% FCS; 72 hours with compound; Alamar blue 4 h
Procedure, shortened: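 This proliferation assay on NCI-H1299 cells used an initial 24-hour compound-free incubation after seeding, followed by 72 hours of compound treatment with 10% FCS serum at 37° C. and 5% (v/v) CO2. Viable cells were quantified by a 4 h Alamar blue incubation and fluorescent plate reading at 544 nm/590 nm, and effects were expressed relative to control cells.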

U87-MG = test: Cellular proliferation assay (Alamar blue), U87-MG; type: cell-based; conditions: Homo sapiens, U-87 MG; 10% FCS; 72 hours with compound; Alamar blue 6 h; read-out: U87-MG (cellular proliferation assay, Table 4) (converted)
Procedure, shortened: as §1

A2780 = test: Cellular proliferation assay (Alamar blue), A2780; type: cell-based; conditions: Homo sapiens, 10% FCS, 72 hours with compound, Alamar blue 24 h, read-out: A2780 (cellular proliferation assay, Table 4) (converted)
Procedure, shortened: as §1

Chain of AuroraB (h) (Q96GD4 whole entry): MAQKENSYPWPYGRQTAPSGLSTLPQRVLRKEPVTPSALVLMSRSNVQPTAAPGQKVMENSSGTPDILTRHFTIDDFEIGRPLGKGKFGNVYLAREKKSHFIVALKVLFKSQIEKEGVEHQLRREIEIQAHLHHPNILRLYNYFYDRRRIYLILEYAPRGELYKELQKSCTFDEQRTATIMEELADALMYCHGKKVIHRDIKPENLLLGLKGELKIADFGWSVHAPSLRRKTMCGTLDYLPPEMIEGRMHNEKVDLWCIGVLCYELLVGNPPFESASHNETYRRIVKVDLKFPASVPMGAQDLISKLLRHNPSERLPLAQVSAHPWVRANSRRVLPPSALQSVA

Row | Compound | IC50 (AuroraB (h)) [µM] | IC50 (CDK1/CyclinB (h)) [µM] | IC50 (CDK4/CyclinD1 (h)) [µM] | IC50 (PLK1 T210D (h)) [µM] | IC50 (PLK2 (h)) [µM] | IC50 (HCT-116) [µM] | IC50 (H1299) [µM] | IC50 (U87-MG) [µM] | IC50 (A2780) [µM]
1 | CC(C)Nc1cc2cc(c1)Nc1nccc(n1)-c1ccc(cc1)CN(C)CCNC(=O)[C@@H]1CCCN1C2 [Compound 153] | > 10 | 2.82 | > 10 | > 10 | > 10 | 5.5 | > 10 | 5.75 | > 10
2 | CN1CCNC(=O)[C@@H]2CCCN2Cc2cc(Br)cc(c2)Nc2nccc(n2)-c2ccc(cc2)C1 [Compound 155] | > 10 | > 10 | > 10 | > 10 | > 10 | > 10 | > 10 | > 10 | > 10
3 | O=C1NCCNc2cc(ccn2)-c2ccnc(n2)Nc2ccc(N3CCOCC3)c(c2)CN2CCCC12 (stereo not drawn) [Compound 161] | 6.17 | 5.13 | > 10 | > 10 | > 10 | 4.68 | 10 | > 10 | 9.77
4 | COc1ccc2cc1CN(C)CCCNC(=O)[C@@H]1CCCN1Cc1cc(cc(NC(C)C)c1)Nc1nccc-2n1 [Compound 164] | > 10 | > 10 | > 10 | > 10 | > 10 | > 10 | > 10 | 2.09 | > 10
5 | O=C1NCCCNCc2ccc(cc2)-c2ccnc(n2)Nc2ccc(N3CCOCC3)c(c2)CN2C[C@H](O)C[C@@H]12 [Compound 169] | > 10 | > 10 | > 10 | > 10 | > 10 | > 10 | > 10 | > 10 | > 10
6 | CN1CCCNC(=O)[C@@H]2CCCN2Cc2cccc(c2)Nc2nccc(n2)-c2ccc(cc2)C1 [Compound 173] | > 10 | > 10 | > 10 | > 10 | > 10 | > 10 | > 10 | > 10 | > 10

Further lines, results first:

Row | IC50 (AuroraB (h)) [µM] | IC50 (CDK1/CyclinB (h)) [µM] | IC50 (CDK4/CyclinD1 (h)) [µM] | IC50 (PLK1 T210D (h)) [µM] | IC50 (PLK2 (h)) [µM] | IC50 (HCT-116) [µM] | IC50 (H1299) [µM] | IC50 (U87-MG) [µM] | IC50 (A2780) [µM] | Compound
7 | > 10 | > 10 | > 10 | > 10 | > 10 | > 10 | > 10 | > 10 | > 10 | COc1ccc2cc1CN(C)CCNC(=O)[C@@H]1CCCN1Cc1cccc(c1)Nc1nccc-2n1 [Compound 175]
8 | > 10 | > 10 | > 10 | > 10 | > 10 | > 10 | > 10 | > 10 | > 10 | COc1ccc2cc1CNCCNC(=O)[C@@H]1C[C@@H](O)CN1Cc1cc(ccc1N1CCOCC1)Nc1nccc-2n1 [Compound 177]
9 | > 10 | > 10 | > 10 | > 10 | > 10 | > 10 | > 10 | 8.91 | > 10 | COc1ccc2cc1CNCCNC(=O)[C@@H]1CCCN1Cc1cc(ccc1N1CCOCC1)Nc1nccc-2n1 [Compound 178]
10 | > 10 | > 10 | > 10 | > 10 | > 10 | > 10 | > 10 | > 10 | > 10 | COc1ccc2cc1CN(C)CCCNC(=O)[C@@H]1CCCN1Cc1cc(cc(N3CCOCC3)c1)Nc1nccc-2n1 [Compound 179]
11 | > 10 | > 10 | > 10 | > 10 | > 10 | > 10 | > 10 | > 10 | > 10 | COc1ccc2cc1CN(C)CCCNC(=O)[C@@H]1CCCN1Cc1cccc(c1)Nc1nccc-2n1 [Compound 180]

Source: patent US8609836B2, “4-aryl-2-anilino-pyrimidines” (Janssen Pharmaceutica NV, priority 2008, dated 2013)
